Source: patent US7939541B2, “Intermediates and a process employing the intermediates for the preparation of (3-trifluoromethylsulfonyl)-N-[4-methyl-3-(4-pyridin-3yl-pyrimidin-2ylamino)-phenyl]-benzamide” (Natco Pharma Limited, priority 2004, dated 2011)

Columns and labels:
[1] = system: Baf3 murine leukemia cells M351T; assay: Blast cell count in nude mice implanted with Baf3 M351T cells; assay type: in vivo; conditions: Baf3M351T; Imatinib 10 mg/kg, AN019 20 mg/kg, AN024 20 mg/kg, oral gavage or ip from day 15; day 42
From the text: Blood smears were obtained via the tail vein or via the femoral vein every 6th day and blast cells counted and graphically represented.
Abdominal swelling and decrease in activity was monitored daily, blood smear taken via the tail vein or the femoral vein every 6th day and H&E stained as per standard protocols. 42 days after implantation, mice were sacrificed and spleens harvested.
Blood from tail vein or the femoral vein was taken every 6th day from Baf3 cell implanted mice until day 42.
Nude mice were intraperitoneally implanted with Baf3 mutant cells (wt, T315I, M351T or E255K). […] Blood was drawn from the femoral vein or tail vein every 6th day and blast cell count determined and graphically represented.

[2] = system: K562luc cells; assay: Determination of drug temporal penetrance (Tp); assay type: in vivo, nude mice; conditions: daily ip from day 15 to day 35, imaged till day 45; AN019 20 mg/kg, AN024 20 mg/kg, Imatinib 10 mg/kg
Procedure: The temporal penetrance was calculated applying the following equation, […].
P=photon counts at day ‘a’, day ‘ter’, or day ‘b’ where ‘a’ is the day when drug treatment was stopped and ‘ter’ is the day when the experiment was terminated and ‘b’ is the day where P is minimum after day a but before day ‘ter’.
n=number of animals alive when P was measured.
The animals were imaged at 6 day intervals post transplantation. […] Drug treatment was stopped on day 35 and animals were imaged till day 45, and calculated as described in methods.

[3] = system: ZR71 breast cancer cells; assay: In vitro angiogenic assay, ZR-71 conditioned media on human dermal endothelial cells; assay type: cell-based; conditions: ZR-71 cells, radiation status not specified
Procedure: (§1) The in vitro angiogenesis of 4910, 5310 and U87 glioma cells and MDAMB231 and ZR71 breast cancer cells in the presence of specified concentrations of compounds were determined as follows, cells (2×10^4/well) were seeded in 8-well chamber slides and were treated with various concentrations of test compounds. After a 24 h incubation period, the conditioned media was removed and added to a 4×10^4 human dermal endothelial cell (monolayer in 8-well chamber slides) and the human dermal endothelial cells were allowed to grow for 72 h. Cells were then fixed in 3.7% formaldehyde and stained with H&E and photographed.

[4] = system: 4910 glioma cells; assay: In vitro angiogenic assay, 4910 conditioned media on human dermal endothelial cells; assay type: cell-based; conditions: 4910 cells, with radiation
Procedure: as §1

[5] = system: K562; assay: ED50 and therapeutic index in leukemic mice (K562); assay type: in vivo; conditions: Mus musculus, K562, po, read-out: ED50 (po) Mice

Q: For `Cc1ccc(NC(=O)c2cccc(S(=O)(=O)C(F)(F)F)c2)cc1Nc1nccc(-c2cccnc2)n1` [AN024, (3-trifluoromethylsulfonyl)-N-[4-methyl-3-(4-pyridin-3yl-pyrimidin-2ylamino)-phenyl]-benzamide], which “blast cell count in blood smears” value [1] is on record?
A: The value was “significant decrease in blast cell count”.

Q: And the “temporal penetrance (Tp)” value [2]?
A: The value was 2.4.

Q: And the inhibition of angiogenesis [3]?
A: The inhibition of angiogenesis was “complete inhibition of angiogenesis”.

Q: What about the inhibition of angiogenesis [4] of the same compound?
A: Its inhibition of angiogenesis is “significant inhibition of angiogenesis”.

Q: And the ED50 [5]?
A: Its ED50 is 10 mg/kg.
